Legend:
JIMT-1 cells = assay: Transfection efficiency of PD-nanoplexes with/without saponin, flow cytometry (GFP); assay type: cell-based, human; conditions: GFP-DNA PD-nanoplexes, saponin 2 μg/ml
Method: After biophysical characterisation had established that nanoplexes of the large plasmid DNA and the poly-lysine peptide were formed, cell experiments were performed: transfections. […] Without wishing to be bound by any theory, the latter effect is most likely due to insufficient complexing of DNA. […] JIMT-1-cells (DSMZ no.: ACC 589) and Neuro-2A- cells (DSMZ no.: ACC 148) were transfected with nanoplexes containing relatively large Cas9-GFP-plasmid, with and without GE1741-Co-application or SO1861-Co-application at a non-toxic concentration, when the cell which is to be transfected is considered. The transfection efficiency of all transfection conditions was measured after 48 h incubation time using flow cytometry by comparison to the negative control in terms of fluorescence intensity (for example, cells contacted with the nanoparticles in the absence of saponin). The efficiency of GE1741-based transfections and SO1861-based transfections was also compared with efficiency of Lipofectamine3000™-based transfection of the nanoparticles. Transfections were performed according to protocols commonly known and applied in the field (Clochard et al., 2020; Sama et al., 2018a; Sama et al., 2017; Sama et al., 2018b). […] Transfection efficiency of GE1741-mediated PD-transfection and SO1861-mediated PD-transfections on Neuro-2A cells and JIMT-1 cells was assessed. […]

Neuro-2A-cells = assay: Confluence measurements during PD-transfections (Cytosmart live-cell imager); assay type: cell-based, murine; conditions: Cas9-GFP- and GFP-DNA-transfections ± saponin, up to 95 h, vs untreated negative control
Method: FIG. 5A-F. Confluence measurements of Neuro-2A-cells during PD (Cas9-GFP)-transfections ±saponin-administration. A visual monitoring of confluence was conducted during the Cas9-GFP-transfections (FIGS. 5A, E, F) and GFP-DNA-transfections (FIGS. 5A, C, D) of Neuro-2A-cells. The display of confluence during the incubation time was provided by algorithms of the Cytosmart. […] Saponin GE1741 was absent (FIGS. 5A, C, E) or present (FIGS. 5A, D, F) during the confluency assessment over time. FIG. 5B-F show the Neuro-2A cell-confluency after an incubation time of 95 h.
In the course of the transfection process of Neuro-2A-cells (seeding, transfection, incubation), the cells were fully imaged and analyzed for confluence by a live-cell imager (Cytosmart Omni). Via cloud-based algorithms, which processed the visual images, the Cytosmart provided a valuable measure of viability in terms of confluence.

Compound: CC(=O)OC1C(C)OC(OC2C(C)OC(OC(=O)C34CCC(C)(C)CC3C3=CCC5C6(C)CCC(OC7OC(C(=O)O)C(O)C(OC8OCC(O)C(O)C8O)C7OC7OC(CO)C(O)C(O)C7O)C(C)(C=O)C6CCC5(C)C3(C)CC4O)C(OC3OC(C)C(OC4OCC(O)C(OC5OCC(O)C(O)C5O)C4O)C(O)C3O)C2O)C(O)C1OC(C)=O (centres unmarked) [GE1741]
- transfection efficiency (cells expressing GFP) (JIMT-1 cells): around 70%
- toxic effects by confluence (Neuro-2A-cells): No distinct toxic effects
